# Source: patent US20170000804A1, “Methods and Compositions for Inhibiting Mitochondrial Trafficking” (The Wistar Institute of Anatomy and Biology, priority 2015, published 2017)
# Key:
# PC3 cells [1] = test: Tumor cell invasion across Matrigel-coated Transwell inserts; assay type: cell-based, human; conditions: for effect on tumor cell invasion in the presence of PI3K therapy: with PX-866, Matrigel, Antimycin A 30 μM, Oligomycin 2.5 μM, Rotenone 4 μM, CCCP 12.5 μM
# Description: Tumor cell invasion: Experiments were carried out essentially as described (41). Briefly, 8 μm PET transwell migration chambers (Corning) were coated with 150 μl of 80 μg/ml Matrigel (Becton Dickinson). Tumor cells were seeded in duplicates onto the coated transwell filters at a density of 1.25×10^5 cells/well in media containing 2% FCS (FCIII, Hyclone) and media containing 20% FCS was placed in the lower chamber as chemoattractant. Cells were allowed to invade and adhere to the bottom of the plate stained in 0.5% crystal violet/methanol for 10 min, rinsed in tap water and analyzed by bright field microscopy. Digital images were batch imported into ImageJ, thresholded and analyzed with the Analyze particles function. For analysis of tumor cell invasion in 3D spheroids, tissue culture-treated 96-well plates were coated with 50 μl 1% DIFCO Agar Noble (Becton Dickinson). LN229 cells were seeded at 5,000 cells/well and allowed to form spheroids over 72 h. Spheroids were harvested, treated with PX-866 (0-10 µM) and placed in a collagen plug containing EMEM, FBS, L-Glutamine, sodium bicarbonate, and collagen type I (Gibco, 1.5 mg/ml). The collagen plug was allowed to set and 1 ml DMEM with 5% FBS was added to the top of the plug. Cell invasion was analyzed every 24 h and quantified using Image Pro Plus 7, as described^41.
# Cell culture and drug treatment: Human GBM LN229, prostate adenocarcinoma PC3, lung carcinoma A549, and mouse fibroblasts NIH3T3 cells were obtained from the American Type Culture Collection (ATCC, Manassas, Va.), and maintained in culture according to the supplier's specifications. Conditioned media was prepared from exponentially growing cultures of NIH3T3 cells as previously described^41, in DMEM supplemented with 4.5 g/l D-glucose, sodium pyruvate, 10 mM HEPES and 10% FBS for 48 h. Where indicated, starvation was carried out in DMEM without glucose for 24 h. PI3K inhibitors were dissolved in DMSO at 10 mM and added to the culture media for 48 h at the following concentrations: AZD6482 at 10 μM, GCD0941 at 2 μM, BKM120 at 0.4 μM and PX-866 at 5 μM. mitoTEMPO was added to the culture media at 50-100 μM, NAC at […], Antimycin A at 30 μM, Oligomycin at 2.5 μM, Rotenone at 4 μM and CCCP at 12.5 μM. For invasions, the antioxidants, ROS scavengers, and ETC inhibitors were added to the top and bottom of the chambers at the moment of cell seeding.
# PC3 cells [2] = test: Mitochondrial localization by fluorescence microscopy; assay type: cell-based, human; conditions: for effect on mitochondrial repositioning to the cortical cytoskeleton in the presence of PI3K therapy: with PX-866, Antimycin A 30 μM, Oligomycin 2.5 μM, Rotenone 4 μM, CCCP 12.5 μM
# Description: Mitochondrial localization. After the indicated transfections or treatments, cells were stained with MitoTracker Red CMXRos (100 nM, 2 h) at 37° C. After fixation with 4% formalin in PBS for 15 min at room temperature, cells were permeabilized with 0.1% Triton X-100/PBS for 5 min, washed, and incubated 30 min with 1% BSA/0.3M glycine/PBS. F-actin was stained with phalloidin Alexa488 (1:1000 dilution) for 30 min at room temperature. Slides were washed and mounted in DAPI-containing Prolong Gold mounting medium (Invitrogen). At least 7 random fields were analyzed by fluorescence microscopy in a Nikon E600 microscope. Composite images were analyzed in Image J, for each cell two lamellipodia were measured to calculate infiltration index, defined as the radial distance from nucleus to furthest mitochondrial string, normalized to the radial distance from nucleus to cell border. In parallel, all cells on the 7 fields were scored into 3 categories, according to gross localization of mitochondria: polarized, pen-nuclear, and infiltrating. For cortical mitochondria quantification, a mask was manually created around the periphery of the cell based on the F-actin channel and subsequently applied to the mitochondria channel to measure intensity at the cortical region (FIG. 8H). The intensity was normalized to total mitochondria intensity per cell and background subtracted. A minimum of 20 cells were analyzed in each independent experiment to obtain mean values. For high resolution imaging of mitochondria in MFN1-depleted cells, slides were sequentially scanned for red, green, and blue fluorescence by a Leica SP5 confocal microscope with a 63× objective and a 20× digital zoom. Full cell z stacks (about 5-8 μm) were postprocessed in Leica Application Suite Advanced Fluorescence (LAS AF) to reduce noise by applying a median filter (two iterations, radius 3) and used to generate max projections.
# PC3 cells [3] = test: Detection of mitochondrial superoxide in live cells (MitoSOX Red); assay type: cell-based, human; conditions: PX-866 48 h with mitoTEMPO
# Description: Detection of mitochondrial superoxide in live cells. The production of superoxide by mitochondria was visualized in fluorescence microscopy using the MitoSOX™ Red reagent. Briefly, 1.5×10^4 cells were grown on high optical quality 8 well μ-slides (Ibidi) and imaged with a 40× objective on a Nikon TE300 inverted time-lapse microscope equipped with a video system containing an Evolution QEi camera and a time-lapse video cassette recorder. The atmosphere was equilibrated to 37° C. and 5% CO2 in an incubation chamber. Phase contrast and TRITC (TRITC filter cube, excitation wavelength: 532-554 nm, emission wavelength: 570-613 nm) images were captured. To quantitate superoxide levels, files were imported into Image J, masks were manually created around the periphery of the cell based on the Phase image and subsequently applied to the TRITC channel to measure intensity. A minimum of 100 cells were analyzed in each independent experiment to obtain mean values.
# [4] = tested on: patient-derived glioblastoma (GBM) organotypic cultures; test: Kinome profiling (OpenArray real-time PCR) of GBM organotypic cultures; assay type: cell-based, human; conditions: PX-866 10 μM for 48 h vs vehicle
# Description: (§1) Organotypic cultures: Short-term organotypic cultures from primary patient samples were established as described^13. Briefly, precise thick tissue slices (300 μm) were obtained by vibratome serial cutting (VT1200, Leica Microsystems, Milan, Italy), and cultured in six-well plates on organotypic inserts (Millicell PICM ORG, Merck Millipore) for up to 48 h in 1 ml of Ham-F12 complete medium supplemented with vehicle (DMSO, 2.5 μl) or pan-PI3K inhibitor […] (10 μM). At the end of the experiment, one tissue slice per condition was formalin-fixed and paraffin-embedded, and further processed for morphological and immunohistochemical analysis. An additional tissue slice was embedded in OCT, and snap-frozen for molecular or immunofluorescence studies.
# Kinome profiling and bioinformatics analysis. Transcriptional changes in the human kinome following PI3K inhibition were analyzed using OpenArray real-time PCR amplification. […] The ΔΔCt method was used to calculate fold changes between sample pairs with endogenous control Ct value calculated as average among 15 endogenous controls on the array: ALAS1, B2M, CASC3, G6PD, GAPDH, GUSB, HMBS, HPRT1, IPO8, POLR2A, PPIA, RPLP0, TFRC, UBE2D2, and YWHAZ. The p values for differential expression were calculated using fold changes of 15 endogenous controls as a null distribution.
# GBM organotypic cultures = test: Human phospho-RTK array, GBM organotypic cultures; assay type: cell-based; conditions: primary organotypic cultures, PX-866 10 μM for 48 h
# Description: (§2) The position and identity of phosphorylated proteins are indicated. M, markers.
# as §1
# GBM LN229 cells = test: Human phospho-RTK array, LN229 cells; assay type: cell-based; conditions: PX-866 10 μM for 48 h
# Description: as §2
# [5] = tested on: patient-derived GBM neurospheres; test: GBM neurosphere formation (number and size); assay type: cell-based, human; conditions: Gamitrinib 5 μM plus PX-866 10 μM, 48 h
# Description: GBM neurospheres: Fresh GBM specimens collected from consenting patients (Division of Neurosurgery, Fondazione IRCCS Ca′ Granda, Milan, Italy) were immediately processed for the isolation of stem cell-containing neurospheres. Briefly, tissues were enzymatically processed with the Tumor Dissociation Kit (Miltenyi Biotech) at 37° C. in combination with the gentleMACS™ Dissociators (Miltenyi Biotech) until achievement of single cell suspension. Then, dissociated GBM cells were grown as spheroid aggregates (neurospheres) as previously described^43 and using the NeuroCult NS-A Proliferation media (StemCell Technologies) supplemented with 20 ng/ml EGF and 10 ng/ml bFGF (Stem Cell Technologies) according to manufacturer's protocol. When pharmacological treatment was performed, neurospheres derived from five GBM patients were mechanically dissociated, stained with PKH26 (Sigma Aldrich) as described^44, and plated at a density of 1000 cells per well in 24-well plates. The intended use of the non-toxic dye PKH26 was for live cell identification and staining. […] During this interval, neurospheres were imaged every 24 h and their size (diameter) and number was assessed by direct counting using ImageJ software. PKH26 was monitored and recorded using the TRITC fluorescent filter. Experiments were performed in duplicates. […]
# PC3 cells [6] = test: Focal adhesion (FA) complexes and mitochondria dual labeling; assay type: cell-based, human; conditions: non-toxic concentrations of Gamitrinib (1 μM), 48 h
# Description: Focal adhesion (FA) complexes and mitochondria dual labeling. Coverslides were coated with fibronectin (10 μg/ml in PBS) overnight at 4° C., rinsed in PBS and equilibrated at 37° C. with 500 μl of 10% FBS/RPMI. Cells were treated as indicated, tripsinized, washed with 10% FBS/RPMI and plated on fibronectin-coated slides, in the presence of Mitotracker Red CMXRos (100 nM). After 5 h, cells were fixed with 10% formalin in PBS for 15 min at room temperature, permeabilized with 0.1% Triton X-100/PBS for 5 min, washed, and FAs were labeled with primary antibodies diluted in 1% BSA/0.3M glycine/PBS, overnight at 4° C. Either one of the following antibodies were used: rabbit anti-pY925-FAK (1:50, Cell Signaling), mouse anti-Paxillin (1:100, Upstate). Next, slides were washed, incubated with secondary antibodies (1:500, Alexa Fluor 488 conjugated) for 1 h at room temperature, washed and mounted in DAPI-containing Prolong Gold mounting medium (Invitrogen). Slides were sequentially scanned for red, green and blue fluorescence in a Leica SP5 confocal microscope with a 100× objective. Libraries were imported into LASLite and a 3 step z-stack centered at the plane of focal adhesions (±0.5 μm) were used to generate 3D max projections.
compound,measurement,setting,value
CC[C@H]1/C=C/C=C/C[C@@H](C)[C@H](O)[C@@](C)(O)C(=O)[C@@H](C)[C@H](O)[C@@H](C)C(=O)[C@@H](C)[C@H](O)[C@@H](C)/C=C/C(=O)O[C@@H]2[C@H](C)[C@H](CC1)O[C@]1(CC[C@H](C)[C@H](C[C@@H](C)O)O1)[C@H]2C [Oligomycin],effect on tumor cell invasion in the presence of PI3K therapy,PC3 cells [1],inhibited
same,effect on mitochondrial repositioning to the cortical cytoskeleton in the presence of PI3K therapy,PC3 cells [2],inhibited
Antimycin A,effect on tumor cell invasion in the presence of PI3K therapy,PC3 cells [1],inhibited
same,effect on mitochondrial repositioning to the cortical cytoskeleton in the presence of PI3K therapy,PC3 cells [2],inhibited
C=C(C)[C@H]1Cc2c(ccc3c2O[C@@H]2COc4cc(OC)c(OC)cc4[C@@H]2C3=O)O1 [Rotenone],effect on tumor cell invasion in the presence of PI3K therapy,PC3 cells [1],inhibited
same,effect on mitochondrial repositioning to the cortical cytoskeleton in the presence of PI3K therapy,PC3 cells [2],inhibited
carbonyl cyanide m-chlorophenyl hydrazine [CCCP],effect on tumor cell invasion in the presence of PI3K therapy,PC3 cells [1],inhibited
same,effect on mitochondrial repositioning to the cortical cytoskeleton in the presence of PI3K therapy,PC3 cells [2],inhibited
CC1(C)CC(NC(=O)C[P+](c2ccccc2)(c2ccccc2)c2ccccc2)CC(C)(C)N1[O] [mitoTEMPO],effect on tumor cell invasion mediated by PI3K inhibitors,"PC3 cells [1]; mitoTEMPO with PX-866, Matrigel",did not affect
same,effect on mitochondrial repositioning to the cortical cytoskeleton mediated by PI3K inhibitors,PC3 cells [2]; mitoTEMPO 50 μM with PI3K inhibitors,did not affect
same,effect on PI3K antagonist-induced mitochondrial superoxide production,PC3 cells [3],abolished
C=CCN(/C=C1/C(=O)O[C@H](COC)[C@@]2(C)C1=C(O)C(=O)C1=C2[C@H](OC(C)=O)C[C@]2(C)C(=O)CC[C@@H]12)CC=C [PX-866],transcriptional changes of growth factor receptor pathways (kinome),[4],transcriptional upregulation of multiple growth factor receptor pathways
same,"phosphorylation, i.e. activation of the GBM kinome",GBM organotypic cultures,widespread phosphorylation
same,"phosphorylation, i.e. activation of the GBM kinome",GBM LN229 cells,widespread phosphorylation
Gamitrinib,effect on increase in tumor cell invasion mediated by PI3K antagonists,"PC3 cells [1]; Gamitrinib with PX-866 5 μM, Matrigel",abolished the increase
same,effect on expansion of primary GBM neurospheres mediated by PI3K antagonists,[5],abolished
same,"mitochondrial distribution (polarized, perinuclear, infiltrating) with PI3K inhibitors",PC3 cells [2]; Gamitrinib in combination with PI3K inhibitors,preserved a polarized and perinuclear mitochondrial distribution
same,effect on trafficking of mitochondria to pFAK-containing FA complexes in response to PI3K antagonists,PC3 cells [6],abolished
"CC(=O)N[C@@H](CS)C(=O)O [NAC, N-acetyl cysteine]",effect on PI3K therapy-mediated tumor cell invasion,"PC3 cells [1]; increasing concentrations of NAC with PX-866 48 h, Matrigel",had no effect
